# Measurements reported in patent US20230112484A1, “COMPOSITIONS FOR CROP PROTECTION” (Agrematch Ltd., priority 2020, published 2023).
# Key:
# Format in all cases: in vivo
# Amaranthus palmeri [1] = assay: Soil germination (Example 1); settings: for Amaranthus palmeri soil germination: score 0 = complete germination inhibition, 100 = no effect; for soil germination of Amaranthus palmeri, result in words: concentration not given
# Method: (§1) Compounds were dissolved in DMSO and then in distilled water to get 0.01-2 mg/ml solution with 1% or 2% DMSO. 1% or 2% DMSO solution in water was used as a negative control. As a positive control, 0.1 or 0.2 mg/ml oxyfluorfen (Galigan) solution was used.
# (§2) Flowerpots were filled with 30 g of soil, and 4-5 seeds were sowed in each flowerpot. Each treatment contained 3 flowerpots. Each flowerpot was sprayed with 1.5 ml of the dissolved compound. Soil was let dry for about 1 hour at room conditions, and then each flowerpot was sub-irrigated with 40 ml water and incubated under conditions provided below.
# (§3) Amaranthus palmeri was incubated at 25° C. for 8 hr in dark, followed by 16 hr at 30° C. in light. Lolium rigidum was incubated at 21° C. for 8 hr in dark, followed by 16 hr at 21° C. in light. Germination was assessed and scored after 4-7 days. Scoring scale: 0—complete germination inhibition, 100—no effect.
# Setaria viridis = assay: Herbicidal effect against Setaria viridis (Example 5); settings: for Herbicidal effect against Setaria viridis, result in words: in vivo
# Amaranthus palmeri [2] = assay: Pre-emergence application (Example 5); settings: score 0 = complete germination inhibition, 100 = no effect
# Method: For pre-emergence application, compounds were dissolved in DMSO and then in distilled water to get 0.1-2 mg/ml solution with 2% DMSO. 2% DMSO solution in water was used as a negative control. As a positive control, 0.2 mg/ml oxyfluorfen ([…]) solution was used. For pre-emergence application, flowerpots were filled with 30 g of soil, and 4-5 Amaranthus palmeri seeds were sowed in each flowerpot. Each treatment contained 3 flowerpots. Each flowerpot was sprayed with 1.5 ml of the dissolved compound. Soil was let dry for about 1 hour at room conditions, and then each flowerpot was sub-irrigated with 40 ml water and incubated under conditions provided below. Amaranthus palmeri was incubated at 25° C. for 8 hr in dark, followed by 16 hr at 30° C. in light. Germination was assessed and scored after 4-7 days. Scoring scale: 0-complete germination inhibition, 100-no effect.
# Amaranthus palmeri [3] = assay: Post-emergence application (Example 5); settings: score 0 = complete phytotoxic effect, 100 = no effect
# Method: For post-emergence application, compounds were dissolved in DMSO and then in distilled water to get 0.05-2 mg/ml solution with 2% DMSO. Break-Thru surfactant was added to a final concentration of 0.05%. Negative control—an aqueous solution of 2% DMSO and 0.05% Break-Thru. Positive control—2 mg/ml Glyphosate (Roundup). For post-emergence application, 1.5 ml of each compound solution were sprayed on the foliage of Amaranthus palmeri, which were 10 days old at the day of the experiment. Each treatment contained 3 pots. Plants were let dry for about 15 minutes at room conditions, and then incubated at controlled growth chambers. Phytotoxicity was assessed and scored 4-10 days after applications. Scoring scale: 0—complete phytotoxic effect, 100—no effect.
# Lolium rigidum = assay: Soil germination (Example 1); settings: for Lolium rigidum soil germination: score 0 = complete germination inhibition, 100 = no effect; for soil germination of Lolium rigidum, result in words: concentration not given
# Method: as §1, §2, §3
# Echinochloa colonum = assay: Soil germination (Example 3); settings: 0.1 mg/ml; score 0 = complete germination inhibition, 100 = no effect; after 7 days
# Method: (§4) Compounds were dissolved in DMSO and then in distilled water to get 0.1 or 0.5 mg/ml solution with 2% DMSO. 2% DMSO solution in water was used as a negative control. No positive control was used in this assay. Flowerpots were filled with 30 g of soil, each treatment contained three flowerpots. Each flowerpot was sprayed with 1.5 ml of the dissolved compound. Soil was let dry for about 1 hour at room conditions, and then each flowerpot was sub-irrigated with 40 ml water and incubated at controlled growth chambers, under conditions provided on table 6. Gemination was assessed and scored after 7 days. Scoring scale: 0—complete germination inhibition, 100—no effect. [table]
# Abutilon theophrasti = assay: Soil germination (Example 3); settings: 0.1 mg/ml; score 0 = complete germination inhibition, 100 = no effect; after 7 days
# Method: as §4
# Amaranthus palmeri [4] = assay: Soil germination (Example 3); settings: 0.1 mg/ml; score 0 = complete germination inhibition, 100 = no effect; after 7 days
# Method: as §4
# Setaria adhaerens = assay: Soil germination (Example 3); settings: 0.1 mg/ml; score 0 = complete germination inhibition, 100 = no effect; after 7 days
# Method: as §4
# Triticum vulgare = assay: Soil germination (Example 3); settings: 0.1 mg/ml; score 0 = complete germination inhibition, 100 = no effect; after 7 days
# Method: as §4
# Zea mays = assay: Soil germination (Example 3); settings: 0.1 mg/ml; score 0 = complete germination inhibition, 100 = no effect; after 7 days
# Method: as §4
# Amaranthus palmeri [5] = assay: Residual activity greenhouse assay; settings: seeds sowed three weeks after pre-emergence application
# Excerpt: Residual activity of Compound 1 and Compound 2 was examined in greenhouse assay. Three weeks after pre-emergence application, new Amaranthus palmeri seeds were sowed on the same pots and germination was followed.
# [6] = 2 mg/ml, 4-10 days after application
structure (smiles),measurement,setting,value
CC(F)/C=C/C(=O)N(Cc1ccc(Cl)nc1)CC(C)C (stereo not drawn) [Compound 3],Amaranthus palmeri soil germination,Amaranthus palmeri [1]; 0.1 mg/ml,30
CC(Cl)/C=C/C(=O)N(Cc1ccc(C#N)nc1)CC(C)C (stereo not drawn) [Compound 13],"Herbicidal effect against Setaria viridis, result in words",Setaria viridis,moderate herbicidal effect
same,Pre-emergence Amaranthus palmeri herbicidal activity,Amaranthus palmeri [2]; 0.1 mg/ml,30
same,Pre-emergence Amaranthus palmeri herbicidal activity,Amaranthus palmeri [2]; 0.25 mg/ml,0
same,Post-emergence Amaranthus palmeri herbicidal activity,Amaranthus palmeri [3]; 0.05 mg/ml,10
same,Post-emergence Amaranthus palmeri herbicidal activity,Amaranthus palmeri [3]; 0.075 mg/ml,0
COc1ccc(CN(CC(C)C)C(=O)/C=C/[C@@H](C)Cl)cc1 [reference compound],Lolium rigidum soil germination,Lolium rigidum; 0.5 mg/ml,unable to reduce soil germination
same,Amaranthus palmeri soil germination,Amaranthus palmeri [1]; 0.1 mg/ml,substantially less active
CC(Cl)/C=C/C(=O)N(CCC(C)C)Cc1cnc(Cl)s1 (stereo not drawn) [Compound 15],"Herbicidal effect against Setaria viridis, result in words",Setaria viridis,moderate herbicidal effect
same,Pre-emergence Amaranthus palmeri herbicidal activity,Amaranthus palmeri [2]; 0.1 mg/ml,20
same,Pre-emergence Amaranthus palmeri herbicidal activity,Amaranthus palmeri [2]; 0.25 mg/ml,0
same,Post-emergence Amaranthus palmeri herbicidal activity,Amaranthus palmeri [3]; 0.25 mg/ml,5
same,Post-emergence Amaranthus palmeri herbicidal activity,Amaranthus palmeri [3]; 0.5 mg/ml,0
CCOCC#CCN(CC(C)C)C(=O)/C=C/C(C)Cl (stereo not drawn) [Compound 9],Pre-emergence Amaranthus palmeri herbicidal activity,Amaranthus palmeri [2]; 0.1 mg/ml,60
same,Pre-emergence Amaranthus palmeri herbicidal activity,Amaranthus palmeri [2]; 0.25 mg/ml,50
same,Pre-emergence Amaranthus palmeri herbicidal activity,"Amaranthus palmeri [2]; 2 mg/ml, after 4-7 days",0
same,Post-emergence Amaranthus palmeri herbicidal activity,Amaranthus palmeri [3]; [6],80
CC(Cl)/C=C/C(=O)N(CCC(C)C)Cc1ccc(Cl)s1 (stereo not drawn) [Compound 14],"Herbicidal effect against Setaria viridis, result in words",Setaria viridis,moderate herbicidal effect
same,Pre-emergence Amaranthus palmeri herbicidal activity,Amaranthus palmeri [2]; 0.1 mg/ml,20
same,Pre-emergence Amaranthus palmeri herbicidal activity,Amaranthus palmeri [2]; 0.25 mg/ml,5
same,Post-emergence Amaranthus palmeri herbicidal activity,Amaranthus palmeri [3]; 0.25 mg/ml,20
same,Post-emergence Amaranthus palmeri herbicidal activity,Amaranthus palmeri [3]; 0.5 mg/ml,20
CC(Cl)/C=C/C(=O)N(CC(C)C)CC(F)(F)F (stereo not drawn) [Compound 11],Pre-emergence Amaranthus palmeri herbicidal activity,Amaranthus palmeri [2]; 0.1 mg/ml,15
same,Pre-emergence Amaranthus palmeri herbicidal activity,Amaranthus palmeri [2]; 0.25 mg/ml,5
same,Pre-emergence Amaranthus palmeri herbicidal activity,"Amaranthus palmeri [2]; 2 mg/ml, after 4-7 days",0
same,Post-emergence Amaranthus palmeri herbicidal activity,Amaranthus palmeri [3]; [6],60
CCC#CCN(CC(C)C)C(=O)/C=C/C(C)Cl (stereo not drawn) [Compound 8],Pre-emergence Amaranthus palmeri herbicidal activity,Amaranthus palmeri [2]; 0.1 mg/ml,100
same,Pre-emergence Amaranthus palmeri herbicidal activity,Amaranthus palmeri [2]; 0.25 mg/ml,40
same,Pre-emergence Amaranthus palmeri herbicidal activity,"Amaranthus palmeri [2]; 2 mg/ml, after 4-7 days",0
same,Post-emergence Amaranthus palmeri herbicidal activity,Amaranthus palmeri [3]; [6],30
CC(Cl)/C=C/C(=O)N(CCC(C)C)CCC(C)C (stereo not drawn) [Compound 16],Inhibition of Setaria viridis,Setaria viridis; applying to the area under cultivation,more than 30%
same,"Herbicidal effect against Setaria viridis, result in words",Setaria viridis,very good herbicidal effect
same,Pre-emergence Amaranthus palmeri herbicidal activity,Amaranthus palmeri [2]; 0.1 mg/ml,10
same,Pre-emergence Amaranthus palmeri herbicidal activity,Amaranthus palmeri [2]; 0.25 mg/ml,0
same,Post-emergence Amaranthus palmeri herbicidal activity,Amaranthus palmeri [3]; 0.25 mg/ml,50
same,Post-emergence Amaranthus palmeri herbicidal activity,Amaranthus palmeri [3]; 0.5 mg/ml,10
C#CCOCC#CCN(CC(C)C)C(=O)/C=C/C(C)Cl (stereo not drawn) [Compound 10],Pre-emergence Amaranthus palmeri herbicidal activity,Amaranthus palmeri [2]; 0.1 mg/ml,100
same,Pre-emergence Amaranthus palmeri herbicidal activity,Amaranthus palmeri [2]; 0.25 mg/ml,5
same,Pre-emergence Amaranthus palmeri herbicidal activity,"Amaranthus palmeri [2]; 2 mg/ml, after 4-7 days",0
same,Post-emergence Amaranthus palmeri herbicidal activity,Amaranthus palmeri [3]; [6],70
CC(Cl)/C=C/C(=O)N(CC(C)C)CC(C)C (stereo not drawn) [Compound 1],"Herbicidal activity, soil germination, Echinochloa colonum",Echinochloa colonum,100
same,"Herbicidal activity, soil germination, Abutilon theophrasti",Abutilon theophrasti,100
same,"Herbicidal activity, soil germination, Amaranthus palmeri",Amaranthus palmeri [4],0
same,"Herbicidal activity, soil germination, Setaria adhaerens",Setaria adhaerens,60
same,"Herbicidal activity, soil germination, Triticum vulgare",Triticum vulgare,100
same,"Herbicidal activity, soil germination, Zea mays",Zea mays,100
same,Lolium rigidum soil germination,Lolium rigidum; 0.5 mg/ml,60
same,"soil germination of Lolium rigidum, result in words",Lolium rigidum,active
same,Amaranthus palmeri soil germination,Amaranthus palmeri [1]; 0.01 mg/ml,80
same,Amaranthus palmeri soil germination,Amaranthus palmeri [1]; 0.025 mg/ml,30
same,Amaranthus palmeri soil germination,Amaranthus palmeri [1]; 0.05 mg/ml,0
same,Amaranthus palmeri soil germination,Amaranthus palmeri [1]; 0.1 mg/ml,0
same,Amaranthus palmeri soil germination,Amaranthus palmeri [1]; 0.25 mg/ml,0
same,"soil germination of Amaranthus palmeri, result in words",Amaranthus palmeri [1],active
same,Residual activity: germination of newly sowed Amaranthus palmeri seeds,Amaranthus palmeri [5],germination was observed
Cc1ccsc1CN(CC(C)C)C(=O)/C=C/C(C)Cl (stereo not drawn) [Compound 6],Lolium rigidum soil germination,Lolium rigidum; 2 mg/ml,30
same,"soil germination of Lolium rigidum, result in words",Lolium rigidum,active
same,Amaranthus palmeri soil germination,Amaranthus palmeri [1]; 0.1 mg/ml,100
same,Amaranthus palmeri soil germination,Amaranthus palmeri [1]; 0.25 mg/ml,100
same,Amaranthus palmeri soil germination,Amaranthus palmeri [1]; 0.5 mg/ml,100
same,Amaranthus palmeri soil germination,Amaranthus palmeri [1]; 1 mg/ml,70
same,Amaranthus palmeri soil germination,"Amaranthus palmeri [1]; 2 mg/ml, after 4-7 days",0
same,"soil germination of Amaranthus palmeri, result in words",Amaranthus palmeri [1],active
CC(Cl)/C=C/C(=O)N(CCC(C)C)Cc1ccc(Cl)nc1 (stereo not drawn) [Compound 12],"Herbicidal effect against Setaria viridis, result in words",Setaria viridis,moderate herbicidal effect
same,Pre-emergence Amaranthus palmeri herbicidal activity,Amaranthus palmeri [2]; 0.1 mg/ml,20
same,Pre-emergence Amaranthus palmeri herbicidal activity,Amaranthus palmeri [2]; 0.25 mg/ml,5
same,Post-emergence Amaranthus palmeri herbicidal activity,Amaranthus palmeri [3]; 0.05 mg/ml,0
same,Post-emergence Amaranthus palmeri herbicidal activity,Amaranthus palmeri [3]; 0.075 mg/ml,0
CC#CCN(CC(C)C)C(=O)/C=C/C(C)Cl (stereo not drawn) [Compound 7],Pre-emergence Amaranthus palmeri herbicidal activity,Amaranthus palmeri [2]; 0.1 mg/ml,10
same,Pre-emergence Amaranthus palmeri herbicidal activity,Amaranthus palmeri [2]; 0.25 mg/ml,5
same,Pre-emergence Amaranthus palmeri herbicidal activity,"Amaranthus palmeri [2]; 2 mg/ml, after 4-7 days",0
same,Post-emergence Amaranthus palmeri herbicidal activity,Amaranthus palmeri [3]; [6],40
